Test results from patent publication US11091546B2, “Optimized PNE-based chimeric receptor T cell switches and uses thereof” (The Scripps Research Institute, priority 2015, dated 2021).

Columns and labels:
RS4;11 cells = test: Inhibition of sCAR-T cell activity by free PNE peptide; format: cell-based; conditions: excess soluble peptide with LCNT switch
Excerpt: The non-binding mutated version of the PNE (PNE-X; bar farthest to the right) was, again, used as a control. […] Alanine mutated free peptide (PepX) has no effect. Only the cognate free peptide epitope inhibits cytotoxicity (see FIGS. 26D-F). FIG. 26E-F show live cell imaging (Incucyte, Essen).
Specificity of sCAR-T cell activation is essential to switch-based control.
One of the great advantages of the sCART cell system is that the activity can be controlled. This can be achieved by either dose escalation of the switches or by stopping switch dosing. In the event that the cessation of switch dosing is not an acute enough response to halt sCART cell activity, immunological synapses are disrupted by the administration of free peptide.
Specificity of sCAR-T cell activation is a critical design consideration for switch-based control.

RS4;11 (CD19 positive) = format: cell-based, human
Procedure: Activity was assessed against NALM-6 (CD19^+), RS4;11 (CD19^+), or RPMI-8226 (CD19^−) (Table 2). The activity of the IgG (FcNull) switch was assessed against RS4;11 (CD19^+), or K562 (CD19^−) (Table 2). The activity of the C-terminal switch was assessed against RS4;11 (CD19^+), or K562 (CD19^−) (Table 4).
sCAR-T cells were co-cultured (96-well plate round bottom; 20-24h; 37° C.; 5% CO2) with RS4;11 (CD19^+) or K562 (CD19^−) cells at a ratio of 10 sCAR-T cells to 1 RS4;11/K562 cell (110,000 cells in total) in 100 uL of RPMI-1640 supplemented with 5% heat inactivated fetal calf serum (Thermo), 1% penicillin-streptomycin (Gibco), 1% L-Glutamine (Gibco), 1 mM sodium pyruvate (Gibco) and 1% non-essential amino acids (Gibco). After 24 hours, each plate was centrifuged at 400×g for 5 minutes at 4° C. To measure target cell lysis, the intracellular protein lactate dehydrogenase (LDH) was measured in the cytotoxicity assay supernatants from the co-cultured cells using the CytoTox 96® Non-Radioactive Cytotoxicity Assay kit (Promega). To measure the effector responses of the sCART cells in vitro, cytokine levels were measured in the cytotoxicity assay supernatants using the Cytometric Bead Array (CBA) Human Th1/Th2 Cytokine Kit II (BD). […]
The GCN4 CAR design was therefore modified to contain the CD8 hinge region (used in CART-19), which has an extracellular CAR domain of approximately 80 Å, and an IgG4 hinge with an extracellular CAR domain of approximately 15-30 Å. An additional construct was developed where a mutation was introduced into the IgG4 hinge that allows for spontaneous disulphide bridge formation between receptor molecules (IgG4m). […] Briefly, activated PBMC were transduced with lentivirus (SEQ ID: 1) containing the anti-PNE CAR construct (SEQ ID: 180) with the CD8 (SEQ ID: 68), IgG4 (SEQ ID: 70) and IgG4m (SEQ ID: 71) hinge domains.
Monovalent and bivalent combinations of these switches were expressed in mammalian protein expression systems (HEK293 or CHO cells) and purified using protein-G columns. Switches were used in cytotoxicity assays at a dose titration within the range of 10 nM to 0.0001 nM. The activity of each switch combination was tested in vitro in the General cytotoxicity assays where LDH release, cytokine production and sCART cell activation were compared (FIGS. 11A-11C).
CAR-T or target cells were incubated with 1 pM to […] of switch in FACS buffer (PBS, 1% FCS, 2 mM EDTA) for 30 minutes at 4° C. before being washed twice and then incubated with the PE-conjugated goat-anti-human kappa antibody (1:100). Cells were washed two times and analyzed using the Accuri flow cytometer (BD). CAR-T cell activity was determined using the CytoTox 96® Non-Radioactive Cytotoxicity Assay (Promega). CAR-T cells were incubated with target cells in the presence of switch for 20-24 hours at 37° C. in complete RPMI with 5% FCS. At the end of the assay, 30 μL of cell free supernatant was added to 30 μL of the LDH assay reagent in a 96-well plate and incubated for 30 minutes at room temperature in the dark; 30 μL of stop solution was added before the plate was read at OD495.

Nalm-6^Luc/GFP cells [1] = test: Nalm-6 Luc/GFP leukemia xenograft; format: in vivo; conditions: for tumor burden (IVIS): 0.5 mg/kg I.V. every other day for 10 days
Procedure: NSG mice were inoculated with CD19^+ Nalm-6^GFP/Luc cells. Six days later, 40×10^6 sCAR-T cells were delivered IV and switch dosing commenced every other day at 0.5 mg/kg for 10 days. Tumor burden was followed by luminescence after injection of luciferin and imaged on an in vivo imaging system (IVIS; PerkinElmer, Waltham, Mass., USA).
Asterisks indicate significance from LCNT Fab group. Data are represented as means±SEM, and statistical significance was calculated using the 2-way ANOVA with Bonferroni's post-test (B & E; shown for final time-point only) or by one-tailed student's t-test (C & F) where *=p<0.05, **=p<0.01 and ***=p<0.001.
NSG mice were inoculated with Nalm-6^GFP/Luc as described in FIG. 28. […] A fourth group consisted of two cohorts (n=3) of mice injected I.V. with sCAR-T cells without (−) LCNT Fab switch. LCNT Fab dosing in the indicated group was carried out daily at 0.5 mg/kg after the initial T cell infusion. Luminescence was measured at 6 h and subsequently every 24 h as indicated. Cohorts were sacrificed for analysis immediately following IVIS imaging. […] Gray lines indicate tumor burden in PBS and sCAR-T cell—LCNT Fab controls. […] Data are represented as means±SEM, and statistical significance was calculated using the one-tailed student's t-test (C & D) where *=p<0.05, **=p<0.01 and ***=p<0.001.
NSG mice were inoculated with Nalm6^GFP/Luc and six days later engrafted with short-dimeric sCAR-T cells as described in FIG. 29. […] Dosing was carried out for 15 d starting at day 6 (corresponding with sCAR-T cell infusion) as indicated by gray shading. Control groups CART-19 and PBS received no switch. The NS group received sCAR-T cells but no switch. Open circles denote the death of individual mice without evidence of tumor burden and may reflect GVHD. Triangles in PBS, NS and q.a.d. group indicate death due to increasing tumor burden. […] (19) indicates CART-19. […] (19) indicates CART-19. […] Triangles indicate the death of individual mice with significant tumor burden. The single mouse death in the 0.05 mg/kg group occurred while tumor burden was decreasing. […] Statistical significance was calculated using the one-tailed student's t-test (B, C & E) where *=p<0.05, **=p<0.01 and ***=p<0.001.
The different sCAR designs were tested in a xenograft model harboring luciferized NALM-6 (CD19+, CD80−, CD86−) cells. 1 mg/kg monovalent switch “A” was administered along with sCAR cells. […] Optimized hinge improved response. Short hinge CARs have faster clearance. Short, dimeric hinge CARs have improved persistence. Tumor burden was visualized with IVIS imaging. Experiments are repeated with a humanized scFv and bivalent switches.
Activity of the switchable CAR-T cell platform in vivo was evaluated via tumor regression in a Nalm-6^Luc/GFP leukemia xenograft model in immunodeficient NOD scid gamma (NSG) mice. These mice without treatment succumb to disease within 21 days. The impact of CAR hinge design on in vivo efficacy was determined using mice inoculated with Nalm-6^Luc/GFP, followed by I.V. injection of long, short, or short-dimeric sCAR-T cells 6 days later. The LCNT Fab was dosed I.V. (0.5 mg/kg) every other day for 10 days and tumor regression was followed by in vivo imaging (IVIS) of the luciferase signal from Nalm-6^Luc/GFP cells (FIG. 29A).
The effect of switch grafting position on the control of tumor burden was determined. As with the previous model, short-dimeric CAR-T cells were injected 6 days after tumor inoculation and mice were treated every other day (starting at day 6) with 0.5 mg/kg LCNT, HCNT, NTBV, LCC1, or HCCT Fab switches (FIG. 29D).
To determine the proliferation and localization of sCAR-T cell cytotoxicity during this time interval, mice were sorted into 5 cohorts per treatment regimen and analyzed at 8, 24, 48, 72, and 96 h after treatment with short-dimeric sCAR-T cells+LCNT Fab switch or with conventional CART-19 and no switch. […]

Nalm-6^Luc/GFP cells [2] = test: Nalm-6 Luc/GFP leukemia xenograft; format: in vivo
GCN4 epitope (7P14P) = GCN4 epitope (7P14P) (Saccharomyces cerevisiae, UniProt P03069); conditions: GCN4 epitope (7P14P) NYHLENEVARLKKL; read-out: dissociation constant (Kd); cited from earlier work
[3] = retreatment 0.5 mg/kg for 10 days

## NYHLENEVARLKKL (CAR binding region - yeast transcription factor GCN4) [PNE]
RS4;11 cells
  effect of free peptide on sCAR-T cell activity: fully inhibited

## anti-CD19 Fab LCNT: FMC63 anti-CD19 Fab, GCN4 peptide on N-terminus of light chain (SEQ ID 36 & 29)
RS4;11 (CD19 positive)
  EC50: 0.9 pM
  increase in potency of cytotoxicity: 2.8 fold
RS4;11 (CD19 positive); short-dimeric sCAR vs CD8-based long hinge
  increase in maximum target cell lysis: > 80%
Nalm-6^Luc/GFP cells [1]; 0.05 mg/kg every day
  serum IL-2, INFγ, TNFα at 24 h vs CART-19: significantly lower than CART-19
Nalm-6^Luc/GFP cells [1]; 0.5 mg/kg every day or every other day for 15 days
  duration of sustained tumor regression after dosing had stopped: > 100 days
Nalm-6^Luc/GFP cells [1]; 0.05 and 0.5 mg/kg, vs […] group
  T cell phenotype in peripheral blood (CD45RA, CD62L): significantly larger populations of CD45RA^−CD62L^+ central memory cells
Nalm-6^Luc/GFP cells [1]; day 17, short-dimeric sCAR-T cells, 0.5 mg/kg every other day
  T cell counts in peripheral blood: greatest T cell expansion
Nalm-6^Luc/GFP cells [1]; long hinge (CD8) sCAR-T cells
  tumor burden (IVIS): minimal impact on disease
Nalm-6^Luc/GFP cells [1]; [3]
  time to decrease tumor signal to levels equivalent to CART-19: ≤ 5 days
  tumor-free time after final dose of second dosing period: > 35 days
Nalm-6^Luc/GFP cells [1]; sCAR-T + daily 0.5 mg/kg LCNT Fab, or CART-19 without switch
  time of peak human IL-2 in peripheral blood: 48 h
Nalm-6^Luc/GFP cells [1]; short (IgG4) sCAR-T cells
  tumor burden (IVIS): significant decrease in tumor burden
Nalm-6^Luc/GFP cells [1]; short-dimeric (IgG4m) sCAR-T cells
  tumor burden (IVIS): significant decrease in tumor burden
Nalm-6^Luc/GFP cells [1]; short-dimeric sCAR-T cells, 0.5 mg/kg every other day from day 6
  tumor burden (IVIS), switch graft position comparison: greatest reduction in tumor burden
Nalm-6^Luc/GFP cells [1]; short-dimeric sCAR-T cells, daily 0.5 mg/kg
  time to limit of luminescence detection: ≤ 96 h
Nalm-6^Luc/GFP cells [2]; 0.05 mg/kg every day for 10 d
  day on which tumor burden reached the limit of detection: ≤ 16 days
Nalm-6^Luc/GFP cells [2]; after 0.05 mg/kg every day for 10 d
  day of tumor relapse: 30 days

B1: 52SR4: high affinity anti-GCN4 (7P14P) scFv used as sCAR extracellular domain (protein)
scFv: DAVVTQESALTSSPGETVTLTCRSSTGAVTTSNYASWVQEKPDHLFTGLIGGTNNRAPGVPARFSGSLIGDKAALTITGAQTEDEAIYFCVLWYSDHWVFGGGTKLTVLGGGGGSGGGGSGGGGSGGGGSDVQLQESGPGLVAPSQSLSITCTVSGFLLTDYGVNWVRQSPGKGLEWLGVIWGDGITDYNSALKSRLSVTKDNSKSQVFLKMNSLQSGDSARYYCVTGLFDYWGQGTTLTVSS
GCN4 epitope (7P14P)
  Kd: 5.2 pM
